Assay results from patent US20260306490A1, “PIM1 INHIBITOR FOR TREATING MYELOPROLIFERATIVE NEOPLASMS” (Sumitomo Pharma America, Inc., priority 2022, published 2026).
Where two headings read alike, the source gives them in different places.

Assays:
R/R MM = details: n = 79; cited from earlier work
R/R MF = details: cited from earlier work
MF patients = details: cited from earlier work
[1] = system: human myeloid progenitors (CFU-GM); experiment: Colony forming cell assay, human myeloid (granulocyte-monocyte, CFU-GM) progenitor proliferation; assay type: cell-based; details: single agent; for IC50: Homo sapiens, 336 h, 14 days, CFU-GM; for concentrations at which myeloid progenitor proliferation was (significantly, additionally) inhibited: vs 0.1% DMSO solvent control, p<0.01
Experimental: (§1) Clonogenic progenitors of human erythroid (CFU-E, BFU-E), granulocyte-monocyte (CFU-GM), and multipotential (CFU-GEMM) lineages were assessed in a semi-solid methylcellulose-based media formulation containing rhIL-3 (10 ng/mL), rhGM-SCF (10 ng/mL), rhSCF (50 ng/mL), and Epo (3 U/mL).
(§2) In addition, 5-FU was evaluated at 1.0, 0.1 and 0.01 μg/mL as a positive control for toxicity.
(§3) Normal human bone marrow light density cells (lot #0210901), derived from normal bone marrow, (Lonza, Maryland) and qualified at ReachBio, were stored at −152° C. until required for the assay. On the day of the experiment, the cells were thawed rapidly, diluted in 10 mL of Iscove's modified Dulbecco's medium containing 10% fetal bovine serum (IMDM+10% FBS) and washed by centrifugation (approximately 1500 r.p.m. for 10 minutes at room temperature). The supernatant was discarded and the cell pellets were resuspended in a known volume of IMDM+10% FBS. A cell count (3% glacial acetic acid) and viability assessment (trypan blue exclusion test) was performed for the bone marrow sample.
(§4) Clonogenic progenitors of human megakaryocyte (CFU-Mk) were assessed in a collagen-based media formulation containing rhIL-3 (10 ng/mL), rhIL-6 (10 ng/mL), and Tpo (50 ng/mL). Clonogenic progenitors of the human erythroid (CFU-E and BFU-E), myeloid (CFU-GM), and megakaryocyte (CFU-Mk) lineages were set up in the media formulations described above. Individually, the test compounds were added to the medium to give the final desired concentrations (10, 3.33, 1, 0.333, 0.1, 0.0333, 0.01 and 0.00333 μM). […] Solvent control cultures (containing no compound but 0.1% DMSO) as well as standard controls (containing no compound and no DMSO) were also initiated. Once introduced into the matrices, the tubes were vortexed to ensure an equal distribution throughout.
(§5) Human myeloid and erythroid progenitor assays were initiated at 1.2×10^4 cells per culture (lot #0210921) and the human megakaryocyte assays were initiated at 1.2×10^5 cells per culture (lot #0210921). Following 14 days in culture, erythroid and myeloid colonies were assessed microscopically in situ and scored by trained personnel. The colonies were divided into the following categories based on size and morphology: CFU-E, BFU-E, CFU-GM, and CFU-GEMM. The human megakaryocyte cultures were transferred from the 35 mm dishes to labeled glass slides, fixed with methanol/acetone fixative, and then stained with anti-human CD41 antibody and an alkaline phosphate detection system according to manufacturers' instructions. The colonies were assessed microscopically and scored by trained personnel and divided into the following categories based on size: CFU-Mk (3-20), CFU-Mk (21-49), and CFU-Mk (≥50).
(§6) Statistical analysis: The mean±standard deviation of three replicate cultures was calculated for both erythroid and myeloid progenitors. Two-tailed standard t-tests were performed to assess if there was a difference in the number of colonies generated between solvent control and treated cultures. Due to the potential subjectivity of colony enumeration, a p value of less than 0.01 is deemed significant. To calculate the concentration of 50% inhibition of colony growth (IC50) for each compound, a dose response curve was generated plotting the log of the compound concentration versus the percentage of control colony growth using GraphPad Prism 9 software.
(§7) Erythroid (CFU-E and BFU-E) and myeloid (CFU-GM) colony enumeration was performed by trained personnel. In addition, the distribution of colony types as well as general colony and cellular morphology was analyzed. The variance in colony number detected in replicate cultures was representative of the historical coefficient of variation for colony enumeration using these types of assays. The number and distribution of colonies detected in the solvent control (0.1% DMSO for single agents) was no different from the standard control (containing no compound and no DMSO). […]

[2] = system: human megakaryocyte progenitors (CFU-Mk); experiment: Colony forming cell assay, human megakaryocyte progenitor (CFU-Mk) proliferation; assay type: cell-based; details: for IC50: Homo sapiens, read-out: IC50, total CFU-Mk (megakaryocyte progenitor proliferation)
Experimental: as §2, §3, §4, §5, §6
Other than the test compounds being combined, the only change from the method in Example 1 was a 0.2% DMSO solvent control instead of 0.1% DMSO. The results are provided in FIGS. 2A-4C (FIGS. 2A-2C are human megakaryocytes (CFU-MK), FIGS. 3A-3C are human erythroid (CFU-E, BFU-E), and FIGS. 4A-4C are human granulocyte-monocyte (CFU-GM).

[3] = system: human erythroid progenitors (CFU-E, BFU-E); experiment: Colony forming cell assay, human erythroid progenitor (CFU-E, BFU-E) proliferation; assay type: cell-based; details: 336 h, single agent, 14 days, CFU-E and BFU-E
Experimental: as §1, §2, §3
Clonogenic progenitors of human megakaryocyte (CFU-Mk) were assessed in a collagen-based media formulation containing rhIL-3 (10 ng/mL), rhIL-6 (10 ng/mL), and Tpo (50 ng/mL). Clonogenic progenitors of the human erythroid (CFU-E and BFU-E), myeloid (CFU-GM), and megakaryocyte (CFU-Mk) lineages were set up in the media formulations described above. Individually, the test compounds were added to the medium to give the final desired concentrations (10, 3.33, 1, 0.333, 0.1, 0.0333, 0.01 and 0.00333 μM). […]
(§8) Human myeloid and erythroid progenitor assays were initiated at 1.2×10^4 cells per culture (lot #0210921) and the human megakaryocyte assays were initiated at 1.2×10^5 cells per culture (lot #0210921). Following 14 days in culture, erythroid and myeloid colonies were assessed microscopically in situ and scored by trained personnel. […] The colonies were assessed microscopically and scored by trained personnel and divided into the following categories based on size: CFU-Mk (3-20), CFU-Mk (21-49), and CFU-Mk (≥50).
(§9) Statistical analysis: The mean±standard deviation of three replicate cultures was calculated for both erythroid and myeloid progenitors. […]
as §7

[4] = system: human myeloid, erythroid and megakaryocyte progenitors; experiment: Colony forming cell assays taken together (erythroid, myeloid, megakaryocyte progenitors); assay type: cell-based; details: single agents compared
Experimental: as §1, §2
Normal human bone marrow light density cells (lot #0210901), derived from normal bone marrow, (Lonza, Maryland) and qualified at ReachBio, were stored at −152° C. until required for the assay. […]
Clonogenic progenitors of human megakaryocyte (CFU-Mk) were assessed in a collagen-based media formulation containing rhIL-3 (10 ng/mL), rhIL-6 (10 ng/mL), and Tpo (50 ng/mL). […]
as §8, §9

[5] = ≥50 × 10^9/L PLT, regimen RUX+Paraclisib
[6] = MOMENTUM, monotherapy 200 mg QD, N = 195
[7] = PERSIST 2, monotherapy 200 mg BID, N = 106
[8] = COMFORT 1, monotherapy 5-25 mg BID, N = 155

Compound: C[C@@H]1C[C@H](N)C[C@H](c2ccncc2NC(=O)c2ccc(F)c(-c3c(F)cccc3F)n2)C1 [PIM447]
- Hem AE, G3+ anemia (R/R MM): G3+ anemia (20%),
- Hem AE, G3+ neutropenia (R/R MM): (20%)
- Hem AE, G3+ thrombocytopenia (R/R MM): (33%)
- Non-hem AE, G3+ diarrhea (R/R MM): (6.3%),
- Non-hem AE, pneumonia (R/R MM): pneumonia (7.6%)

Compound: CCOc1c([C@H](C)n2nc(C)c3c(N)ncnc32)cc(Cl)c(F)c1[C@@H]1CNC(=O)C1 [Parsaclisib, parsaclisib]
- SVR35 at Week 24 (R/R MF; [5]): 3%
- TSS50 at Week 24 (R/R MF; [5]): 11%

Compound: Cc1noc2c1-c1ccccc1C(c1ccc(Cl)cc1)=N[C@H]2CC(N)=O [Pelabresib, pelabresib]
- SVR35 at Week 24 (R/R MF; ≥75 × 10^9/L PLT, monotherapy): 11%
- TSS50 at Week 24 (R/R MF; ≥75 × 10^9/L PLT, monotherapy): 28%

Compound: N#CCNC(=O)c1ccc(-c2ccnc(Nc3ccc(N4CCOCC4)cc3)n2)cc1 [momelotinib]
- TEAE Anemia, All Gr (MF patients; [6]): 99%
- TEAE Anemia, ≥3 Gr (MF patients; [6]): 61%
- TEAE Neutropenia, All Gr (MF patients; [6]): 29%
- TEAE Neutropenia, ≥3 Gr (MF patients; [6]): 12%
- TEAE Thrombocytopenia, All Gr (MF patients; [6]): 76%
- TEAE Thrombocytopenia, ≥3 Gr (MF patients; [6]): 28%
- IC50 [1]: 0.26 µM
- concentrations at which myeloid progenitor proliferation was (significantly, additionally) inhibited [1]: 1.0 µM
- IC50 ([2]; single agent): 0.3 µM
- SVR35 at Week 24 (R/R MF; ≥25 × 10^9/L PLT, monotherapy): 23%
- TSS50 at Week 24 (R/R MF; ≥25 × 10^9/L PLT, monotherapy): 25%
- IC50 [3]: 1.6 µM

Compound: C1=C/COCc2cc(ccc2OCCN2CCCC2)Nc2nccc(n2)-c2cccc(c2)COC/1 [pacritinib]
- TEAE Anemia, All Gr (MF patients; [7]): 24%
- TEAE Anemia, ≥3 Gr (MF patients; [7]): 22%
- TEAE Neutropenia, ≥3 Gr (MF patients; [7]): 7%
- TEAE Thrombocytopenia, All Gr (MF patients; [7]): 34%
- TEAE Thrombocytopenia, ≥3 Gr (MF patients; [7]): 32%
- IC50 [1]: 0.17 µM
- concentrations at which myeloid progenitor proliferation was (significantly, additionally) inhibited [1]: 0.1 µM
- IC50 ([2]; single agent): 0.34 µM
- SVR35 at Week 24 (R/R MF; <50 × 10^9/L PLT, monotherapy): 29%
- IC50 [3]: 0.28 µM

Compound: N#CC[C@H](C1CCCC1)n1cc(-c2ncnc3[nH]ccc23)cn1 [ruxolitinib]
- TEAE Anemia, All Gr (MF patients; [8]): 96%
- TEAE Anemia, ≥3 Gr (MF patients; [8]): 45%
- TEAE Neutropenia, All Gr (MF patients; [8]): 19%
- TEAE Neutropenia, ≥3 Gr (MF patients; [8]): 7%
- TEAE Thrombocytopenia, All Gr (MF patients; [8]): 70%
- TEAE Thrombocytopenia, ≥3 Gr (MF patients; [8]): 13%
- IC50 [1]: 0.1 µM
- IC50 ([2]; single agent): 0.2 µM
- concentrations at which total CFU-Mk was (significantly) inhibited ([2]; single agent, vs solvent control): ≥ 0.033 µM
- relative potency of inhibition of megakaryocyte progenitors ([2]; single agents compared): most potent
- IC50 [3]: 0.11 µM
- relative potency of inhibition of progenitor proliferation [4]: most potent
